Reference: patent publication US20080318778A1, “Agriculture Composition Method Comprising Nitric Oxide Generating Agent” (University of Sheffield, priority 2004, published 2008)

Tests used:
[1] = system: bean cv. Orfeo INIA; assay: Weekly spraying of field-grown bean plants, effect on yield (pods/plant, seed/plant); assay type: in vivo, Phaseolus vulgaris; details: sprayed every week for two months until pod setting, NaNO2 at 200 μM, AsA at 100 μM, mixture AsA/NaNO2 at 100 μM/200 μM, control sprayed with water
Protocol: Plants of bean cv Orfeo INIA were grown in rows 80 cm apart and at a density of 10 plants/m, during the 2001 Southern Spring in the Experimental Station of the Univ. of Chile, Santiago. Plants were irrigated twice a week with abundant water in order to avoid water stress at any developmental stage. Phytosanitary, weed and fertilizer conditions of the plant was controlled as recommended for commercial crop.
One month old plants were sprayed every week for a two month period, until pod setting with: NaNO2 at 200 μM; AsA at 100 μM and a mixture of AsA/NaNO2 at […]. Control plants were sprayed with water.

[2] = system: grapevine cv Sultana; assay: Spraying of dormant grapevine cuttings, onset of bud burst in growth chamber; assay type: in vivo, Vitis vinifera L; details: H2CN2 2.5% spray
Protocol: Cuttings of grapevine cv Sultana with three dormant buds each were collected from a vineyard located at Antumapu Experimental Station, University of Chile, by the end of May 2003 (Autumn South Hemisphere). After fungicide treatment, they were kept wrapped up with plastic for one week in a dark and cold chamber at 7° C. day/night. […] The number of buds burst was registered every day after the first bud was detected starting to growth. This moment was considered as the initiation of the bud burst.

SMILES	yield (Number of pods/plant and Number of seed/plant) [1]	strength of effect on bud burst, AsA/NaNO2 compared with cyanamide [2]
O=C1O[C@H]([C@@H](O)CO)C(O)=C1O [AsA, ascorbic acid]	neither AsA or NaNO2 alone had any effect on yield	–
O=NO [NaNO2, sodium nitrite]	neither AsA or NaNO2 alone had any effect on yield	–
N#CN [cyanamide]	–	The effect was not as strong as with cyanamide
